For test [1], the system named is A431 (ATCC: CRL-1555). Nature of the test: Test of cancer cell growth inhibition (SRB), A431. The conditions noted are these: read-out: IC50 A431.
Test [2] deals with SK-Br3 (ATCC: HTB-30). Nature of the test: Test of cancer cell growth inhibition (SRB), SK-Br3. The conditions noted are these: read-out: IC50 SK-Br-3.
The mark [3] stands for this setting: EGFR overexpressed A431, 72 hours, SRB.

Like-named read-outs stand apart in the source and are kept apart here.

Regarding `C=CC(=O)N1CCC[C@H](C(=O)Nc2cc3c(Nc4ccc(OCc5ccccn5)c(Cl)c4)ncnc3cc2OC)C1` [Example 201, (3S)-1-acryloyl-piperidine-3-carboxylic acid {4-[3-chloro-4-(pyridin-2-ylmethoxy)-phenylamino]-7-methoxy-quinazolin-6-yl}-amide], the IC50 in test [1] (Homo sapiens, A-431, 72 h) is 148 nM; in test [2] (Homo sapiens, SK-BR-3, 72 h) it was 25 nM.
With `C=CC(=O)N1CCC[C@H]1C(=O)Nc1cc2c(Nc3ccc(OCc4cccc(C)n4)c(Cl)c3)ncnc2cc1OC` [Example 194, (2S)-1-acryloyl-pyrrolidine-2-carboxylic acid {4-[3-chloro-4-(6-methyl-pyridin-2-ylmethoxy)-phenylamino]-7-methoxy-quinazolin-6-yl}-amide], the IC50 in test [1] (Homo sapiens, A-431, 72 h) stood at 93 nM; in test [2] (Homo sapiens, SK-BR-3, 72 h), 56 nM.
`COCC(=O)N[C@H](C(=O)Nc1ccc2ncnc(Nc3ccc(OCc4cccc(F)c4)c(Cl)c3)c2c1)c1ccccc1` [Example 11, (2S)—N-{4-[3-chloro-4-(3-fluoro-benzyloxy)-phenylamino]-quinazolin-6-yl}-2-(2-methoxy-acetylamino)-2-phenyl-acetamide]: the IC50 in test [1] (Homo sapiens, A-431, 72 h) was 252 nM; in test [2] (Homo sapiens, SK-BR-3, 72 h) it was 113 nM.
In the same order, the values of `C#Cc1cccc(Nc2ncnc3ccc(NC(=O)[C@@H]4CCCN4C(=O)C=C)cc23)c1` [Example 158, (2S)-1-acryloyl-pyrrolidine-2-carboxylic acid [4-(3-ethynyl-phenylamino)-quinazolin-6-yl]-amide] are 583 nM and 48 nM.
The matching figures for `CC(=O)OCC(=O)NCCC(=O)Nc1ccc2ncnc(Nc3ccc(OCc4cccc(F)c4)c(Cl)c3)c2c1` [Example 121, acetic acid (2-{4-[3-chloro-4-(3-fluoro-benzyloxy)-phenylamino]-quinazolin-6-ylcarbamoyl}-ethylcarbamoyl)-methylester]: 616 nM and 69 nM.
For the compound `C=CC(=O)N1CCCCC1C(=O)Nc1ccc2ncnc(Nc3ccc(OCc4ccccn4)c(Cl)c3)c2c1` (stereo not shown) [Example 164, 1-acryloyl-piperidine-2-carboxylic acid {4-[3-chloro-4-(pyridin-2-ylmethoxy)-phenylamino]-quinazolin-6-yl}-amide], the IC50 in test [1] (setting [3]) amounted to 105 nM; in test [2] (Homo sapiens, SK-BR-3, 72 h), 12 nM.
Regarding `C=CC(=O)N1CCC1C(=O)Nc1cc2c(Nc3ccc(OCc4ccccn4)c(Cl)c3)ncnc2cc1F` (stereo not shown) [Example 195, 1-acryloyl-azetidine-2-carboxylic acid {4-[3-chloro-4-(pyridin-2-ylmethoxy)-phenylamino]-7-fluoro-quinazolin-6-yl}-amide], the IC50 in test [1] (Homo sapiens, A-431, 72 h) amounted to 119 nM; in test [2] (Homo sapiens, SK-BR-3, 72 h), 44 nM.
The matching figures for `C=CC(=O)N1CCC[C@H]1C(=O)Nc1cc2c(Nc3ccc(OCc4cccc(F)c4)c(Cl)c3)ncnc2cc1OCCOC` [Example 215, (2S)-1-acryloyl-pyrrolidine-2-carboxylic acid {4-[3-chloro-4-(3-fluoro-benzyloxy)-phenylamino]-7-(2-methoxyethoxy)-quinazolin-6-yl}-amide]: 59 nM and 11 nM.
As to `C=CC(=O)N1CCC[C@H]1C(=O)Nc1ccc2ncnc(Nc3ccc(F)c(Cl)c3)c2c1` [Example 159, (2S)-1-acryloyl-pyrrolidine-2-carboxylic acid [4-(3-chloro-4-fluoro-phenylamino)-quinazolin-6-yl]-amide], the IC50 in test [1] (Homo sapiens, A-431, 72 h) amounted to 462 nM; in test [2] (Homo sapiens, SK-BR-3, 72 h), 223 nM.
Regarding `C=CC(=O)N1C[C@H](S(=O)(=O)CC)C[C@H]1C(=O)Nc1ccc2ncnc(Nc3ccc(OCc4ccccn4)c(Cl)c3)c2c1` [Example 160, (2S,4R)-1-acryloyl-4-ethanesulfonyl-pyrrolidine-2-carboxylic acid {4-[3-chloro-4-(pyridin-2-ylmethoxy)-phenylamino]-quinazolin-6-yl}-amide], the IC50 turned out to be 6930 nM in test [1] (Homo sapiens, A-431, 72 h) and 437 nM in test [2] (Homo sapiens, SK-BR-3, 72 h).
The matching figures for `O=C(CCCNC(=O)c1cn[nH]c1)Nc1ccc2ncnc(Nc3ccc(OCc4cccc(F)c4)c(Cl)c3)c2c1` [Example 95, 1H-pyrazol-4-carboxylic acid (3-{4-[3-chloro-4-(3-fluoro-benzyloxy)-phenylamino]-quinazolin-6-ylcarbamoyl}-propyl)-amide]: 994 nM and 331 nM.
In the same order, the values of `O=C(CCNC(=O)c1cn[nH]c1)Nc1ccc2ncnc(Nc3ccc(OCc4cccc(F)c4)c(Cl)c3)c2c1` [Example 34, 1H-pyrazol-4-carboxylic acid (2-{4-[3-chloro-4-(3-fluoro-benzyloxy)-phenylamino]-quinazolin-6-ylcarbamoyl}-ethyl)-amide] are 896 nM and 141 nM.
As to `COCCNCC(=O)NCCCC(=O)Nc1ccc2ncnc(Nc3ccc(OCc4cccc(F)c4)c(Cl)c3)c2c1` [Example 106, N-{4-[3-chloro-4-(3-fluoro-benzyloxy)-phenylamino]-quinazolin-6-yl}-4-[2-(2-methoxy-ethylamino)-acetylamino]-butyramide], the IC50 stood at 359 nM in test [1] (Homo sapiens, A-431, 72 h) and 48 nM in test [2] (Homo sapiens, SK-BR-3, 72 h).
The matching figures for `O=C(CCNC(=O)c1ccoc1)Nc1ccc2ncnc(Nc3ccc(OCc4cccc(F)c4)c(Cl)c3)c2c1` [Example 33, furan-3-carboxylic acid (2-{4-[3-chloro-4-(3-fluoro-benzyloxy)-phenylamino]-quinazolin-6-ylcarbamoyl}-ethyl)-amide]: 348 nM and 131 nM.
The matching figures for `O=C(CCNC(=O)C1CC1)Nc1ccc2ncnc(Nc3ccc(OCc4cccc(F)c4)c(Cl)c3)c2c1` [Example 37, cyclopropylcarboxylic acid (2-{4-[3-chloro-4-(3-fluoro-benzyloxy)-phenylamino]-quinazolin-6-ylcarbamoyl}-ethyl)-amide]: 137 nM and 160 nM.
For `COC(=O)NCCC(=O)Nc1ccc2ncnc(Nc3ccc(OCc4cccc(F)c4)c(Cl)c3)c2c1` [Example 126, (2-{4-[3-chloro-4-(3-fluoro-benzyloxy)-phenylamino]-quinazolin-6-ylcarbamoyl}-ethyl)-carbamic acid methylester], the IC50 in test [1] (Homo sapiens, A-431, 72 h) came out at 99 nM; in test [2] (Homo sapiens, SK-BR-3, 72 h) it was 91 nM.
In the case of `C=CC(=O)N1CCCC(C(=O)Nc2ccc3ncnc(Nc4ccc(OCc5ccccn5)c(Cl)c4)c3c2)C1` (stereo not shown) [Example 162, 1-acryloyl-piperidine-3-carboxylic acid {4-[3-chloro-4-(pyridin-2-ylmethoxy)-phenylamino]-quinazolin-6-yl}-amide], the IC50 in test [1] (setting [3]) was determined as 286 nM; in test [2] (Homo sapiens, SK-BR-3, 72 h) it was 28 nM.
As for `C=CC(=O)N1CCC[C@H]1C(=O)Nc1ccc2ncnc(Nc3ccc(OCc4cccnc4)c(Cl)c3)c2c1` [Example 152, (2S)-1-acryloyl-pyrrolidine-2-carboxylic acid {4-[3-chloro-4-(pyridin-3-ylmethoxy)-phenylamino]-quinazolin-6-yl}-amide], the IC50 in test [1] (Homo sapiens, A-431, 72 h) was 166 nM; in test [2] (Homo sapiens, SK-BR-3, 72 h), 4 nM.
The matching figures for `CC(C)(C)OC(=O)NCCCCC(=O)Nc1ccc2ncnc(Nc3ccc(OCc4cccc(F)c4)c(Cl)c3)c2c1` [Example 114, (4-{4-[3-chloro-4-(3-fluoro-benzyloxy)-phenylamino]-quinazolin-6-ylcarbamoyl}-butyl)-carbamic acid t-butylester]: 136 nM and 216 nM.
In the case of `C=CC(=O)N1CCCCC1C(=O)Nc1cc2c(Nc3ccc(OCc4ccccn4)c(Cl)c3)ncnc2cc1OC` (stereo not shown) [Example 196, 1-acryloyl-piperidine-2-carboxylic acid {4-[3-chloro-4-(pyridin-2-ylmethoxy)-phenylamino]-7-methoxy-quinazolin-6-yl}-amide], the half-maximal inhibitory concentration (IC50) in test [1] (Homo sapiens, A-431, 72 h) came to 88 nM; in test [2] (Homo sapiens, SK-BR-3, 72 h), 25 nM.
The matching figures for `C=CC(=O)N1CCC[C@H]1C(=O)Nc1cc2c(Nc3ccc(OCc4ccccn4)c(Cl)c3)ncnc2cc1OCC1CC1` [Example 172, (2S)-1-acryloyl-pyrrolidine-2-carboxylic acid {4-[3-chloro-4-(pyridin-2-ylmethoxy)-phenylamino]-7-cyclopropylmethoxy-quinazolin-6-yl}-amide]: at least 10000 nM and 4520 nM.
`C=CC(=O)N1CCC(C(=O)Nc2ccc3ncnc(Nc4ccc(OCc5ccccn5)c(Cl)c4)c3c2)C1` (stereo not shown) [Example 155, 1-acryloyl-pyrrolidine-3-carboxylic acid {4-[3-chloro-4-(pyridin-2-ylmethoxy)-phenylamino]-quinazolin-6-yl}-amide]: the IC50 amounted to 350 nM in test [1] (setting [3]) and 12 nM in test [2] (Homo sapiens, SK-BR-3, 72 h).
With `CSCC(=O)NCCCC(=O)Nc1ccc2ncnc(Nc3ccc(OCc4cccc(F)c4)c(Cl)c3)c2c1` [Example 137, N-{4-[3-chloro-4-(3-fluoro-benzyloxy)phenylamino]-quinazolin-6-yl}-4-(2-methanesulfanyl-acetylamino)-butyramide], the IC50 came to 100 nM in test [1] (setting [3]) and 44 nM in test [2] (Erb-B2 overexpressed SK-Br3, 72 hours, SRB).
For the compound `C=CC(=O)NCCC(=O)Nc1ccc2ncnc(Nc3ccc(OCc4ccncc4)c(Cl)c3)c2c1` [Example 174, N-(2-{4-[3-chloro-4-(pyridin-4-ylmethoxy)-phenylamino]-quinazolin-6-ylcarbamoyl}-ethyl)-acrylamide], the IC50 in test [1] (Homo sapiens, A-431, 72 h) turned out to be 956 nM; in test [2] (Homo sapiens, SK-BR-3, 72 h), 35 nM.
In the same order, the values of `O=C(CCNC(=O)C(F)(F)F)Nc1ccc2ncnc(Nc3ccc(OCc4cccc(F)c4)c(Cl)c3)c2c1` [Example 119, N-{4-[3-chloro-4-(3-fluoro-benzyloxy)-phenylamino]-quinazolin-6-yl}-3-(2,2,2-trifluoro-acetylamino)-propionamide] are 161 nM and 69 nM.
For `C=CC(=O)NCCC(=O)Nc1ccc2ncnc(Nc3ccc(OCc4cccnc4)c(Cl)c3)c2c1` [Example 134, N-(2-{4-[3-chloro-4-(pyridin-3-ylmethoxy)-phenylamino]-quinazolin-6-ylcarbamoyl}-ethyl)-acrylamide], the IC50 amounted to 193 nM in test [1] (Homo sapiens, A-431, 72 h) and 4 nM in test [2] (Homo sapiens, SK-BR-3, 72 h).

For the origin of these results see US8003658B2, “Quinazoline derivatives for inhibiting cancer cell growth and method for the preparation thereof” (Hanmi Holdings Co., Ltd., priority 2004, dated 2011).
